EC50 data for 28 compounds are collected here from patent US9023852B2, “1, 2, 4-thiadiazol-5-ylpiperazine derivatives useful in the treatment of neurodegenerative diseases” (Remynd NV, priority 2011, dated 2015).

Molecules are shown by their SMILES.

The subject of the assay is M17—3TAU(P301L) cells. In words: Neuroblastoma tauopathy model: inhibition of TAU-induced cytotoxicity (LDH). Particulars: Homo sapiens, 168 h; inhibition of TAU-induced toxicity (LDH), 7 days differentiation with retinoic acid. It is filed as cell-based. In a few lines:
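BE-M17 neuroblastoma cells stably expressing human TAU-P301L, differentiated with RA (2.5 μM in added medium) for 7 days at 37 °C with compounds at a range of concentrations. Cytotoxicity as supernatant LDH over total LDH (Cytotox 96); EC50 from dose-dependent inhibition curve.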
In general, EC50 refers to the concentration needed to bring the measured effect to its halfway point. Read a low EC50 as a more potent agent. As for `FC(F)(F)c1cccc(CCN2CCN(c3nc(-c4cccc(Cl)c4)ns3)CC2)c1` [Example 142, 1-[3-(3-Chloro-phenyl)-[1,2,4]thiadiazol-5-yl]-4-[2-(3-trifluoromethyl-phenyl)-ethyl]-piperazine], a half-maximal response (EC50) required 3.7 nM. This counts as single-digit nanomolar.

In turn, `N#Cc1cccc(-c2nsc(N3CCN(CCc4ccc(F)c(F)c4)CC3)n2)c1` [Example 137, 3-(5-{4-[2-(3,4-Difluoro-phenyl)-ethyl]-piperazin-1-yl}-[1,2,4]thiadiazol-3-yl)-benzonitrile] returned a 50% effective concentration (EC50) of 6.2 nM.

For the compound `COc1ccc(CCN2CCN(c3nc(-c4cccc(C#N)c4)ns3)CC2)cc1` [Example 81, 3-(5-{4-[2-(4-Methoxy-phenyl)-ethyl]-piperazin-1-yl}-[1,2,4]thiadiazol-3-yl)-benzonitrile], the 50% effective concentration (EC50) came out at 0.6 nM.

In turn, `Cc1cc(-c2nsc(N3CCN(CCc4ccc(F)cc4)CC3)n2)cnn1` [Example 174, 5-(4-(4-fluorophenethyl)piperazin-1-yl)-3-(6-methylpyridazin-4-yl)-1,2,4-thiadiazole] came in with an EC50 of 12.6 nM.

On to `COc1ccccc1CCN1CCN(c2nc(-c3ccc(Cl)cc3)ns2)CC1` [Example 27, 1-[3-(4-Chloro-phenyl)-[1,2,4]thiadiazol-5-yl]-4-[2-(2-methoxy-phenyl)-ethyl]-piperazine], for which the response was half-maximal at 16.7 nM (EC50).

Turning to `Clc1ccc(CCN2CCN(c3nc(-c4cc(Cl)ccn4)ns3)CC2)cc1` [Example 123, 1-[2-(4-Chloro-phenyl)-ethyl]-4-[3-(4-chloro-pyridin-2-yl)-[1,2,4]thiadiazol-5-yl]-piperazine], a half-maximal response (EC50) required 94.6 nM.

For `CC(C)Oc1cccc(CCN2CCN(c3nc(-c4ccc(Cl)cc4)ns3)CC2)c1` [Example 51, 1-[3-(4-Chloro-phenyl)-[1,2,4]thiadiazol-5-yl]-4-[2-(3-isopropoxy-phenyl)-ethyl]-piperazine], the EC50 amounted to 152 nM.

`Cc1ccc(-c2nsc(N3CCN(CCCc4ccccc4)CC3)n2)cc1` [Example 155, 5-(4-(3-phenylpropyl)piperazin-1-yl)-3-(p-tolyl)-1,2,4-thiadiazole] gave a concentration giving a half-maximal response (EC50) of 976 nM.

Compound `Fc1ccc(CCN2CCN(c3nc(-c4cncc(Cl)c4)ns3)CC2)cc1F` [Example 160, 3-(5-chloropyridin-3-yl)-5-(4-(3,4-difluorophenethyl)piperazin-1-yl)-1,2,4-thiadiazole] showed an EC50 of 0.4 nM. Compared with the last compound, the EC50 is about 2400-fold lower.

`FC(F)(F)c1ccc(CCN2CCN(c3nc(-c4cncc(Cl)c4)ns3)CC2)cc1` [Example 152, 1-[3-(5-Chloro-pyridin-3-yl)-[1,2,4]thiadiazol-5-yl]-4-[2-(4-trifluoromethyl-phenyl)-ethyl]-piperazine] displayed a concentration for a half-maximal effect (EC50) of 215 nM.

In the case of `COc1cc(CCN2CCN(c3nc(-c4ccnc(C)c4)ns3)CC2)ccn1` [Example 172, 5-(4-(2-(2-methoxypyridin-4-yl)ethyl)piperazin-1-yl)-3-(2-methylpyridin-4-yl)-1,2,4-thiadiazole], it took 14.4 nM to reach a half-maximal effect (EC50).

The compound `COc1ccc(CCN2CCN(c3nc(-c4ccc(Cl)cn4)ns3)CC2)cc1` [Example 126, 1-[3-(5-Chloro-pyridin-2-yl)-[1,2,4]thiadiazol-5-yl]-4-[2-(4-methoxy-phenyl)-ethyl]-piperazine] displayed an EC50 of 7 nM.

`Fc1cccc(-c2nsc(N3CCN(CCc4ccccc4)CC3)n2)c1` [Example 83, 1-[3-(3-Fluoro-phenyl)-[1,2,4]thiadiazol-5-yl]-4-phenethyl-piperazine] showed an EC50 of 9.5 nM.

Take `Fc1ccc(-c2nsc(N3CCN(CCc4ccc(Cl)cc4)CC3)n2)cc1F` [Example 104, 1-[2-(4-Chloro-phenyl)-ethyl]-4-[3-(3,4-difluoro-phenyl)-[1,2,4]thiadiazol-5-yl]-piperazine]: it took 11.2 nM to reach a half-maximal effect (EC50).

On to `COc1cccc(CCN2CCN(c3nc(-c4ccccc4Cl)ns3)CC2)c1` [Example 57, 1-[3-(2-Chloro-phenyl)-[1,2,4]thiadiazol-5-yl]-4-[2-(3-methoxy-phenyl)-ethyl]-piperazine], for which the concentration for a half-maximal effect (EC50) was determined as 14.5 nM.

Compound `COc1cc(CCN2CCN(c3nc(-c4cc(Cl)ccn4)ns3)CC2)ccn1` [Example 127, 1-[3-(4-Chloro-pyridin-2-yl)-[1,2,4]thiadiazol-5-yl]-4-[2-(2-methoxy-pyridin-4-yl)-ethyl]-piperazine] yielded an EC50 of 109 nM.

The compound `FC(F)(F)c1cccc(CCN2CCN(c3nc(-c4ccc(Cl)cc4)ns3)CC2)c1` [Example 140, 1-[3-(4-Chloro-phenyl)-[1,2,4]thiadiazol-5-yl]-4-[2-(3-trifluoromethyl-phenyl)-ethyl]-piperazine] showed an EC50 of 72.6 nM. This EC50 lies about 1.5-fold lower than the previous one.

As to `Fc1ccc(CCN2CCN(c3nc(-c4cccc(F)c4)ns3)CC2)cc1` [Example 86, 1-[2-(4-Fluoro-phenyl)-ethyl]-4-[3-(3-fluoro-phenyl)-[1,2,4]thiadiazol-5-yl]-piperazine], the 50% effective concentration (EC50) is 8.9 nM.

In turn, `COc1ccc(CCN2CCN(c3nc(-c4ccc(C)nc4)ns3)CC2)cc1` [Example 95, 1-[2-(4-Methoxy-phenyl)-ethyl]-4-[3-(6-methyl-pyridin-3-yl)-[1,2,4]thiadiazol-5-yl]-piperazine] had an EC50 of 3.1 nM.

`Clc1ccc(CCN2CCN(c3nc(-c4cncc(Cl)c4)ns3)CC2)cc1` [Example 132, 1-[2-(4-Chloro-phenyl)-ethyl]-4-[3-(5-chloro-pyridin-3-yl)-[1,2,4]thiadiazol-5-yl]-piperazine]: the EC50 came to 3.3 nM.

`COc1ccc(CCN2CCN(c3nc(-c4cccc(OC)c4)ns3)CC2)cc1` [Example 18, 1-[2-(4-Methoxy-phenyl)-ethyl]-4-[3-(3-methoxy-phenyl)[1,2,4]thiadiazol-5-yl]-piperazine]: the concentration giving a half-maximal response (EC50) came to 367 nM.

For `COc1ccc(CCN2CCN(c3nc(-c4ccc(Cl)cc4)ns3)CC2)cc1` [Example 17, 1-[3-(4-Chloro-phenyl)-[1,2,4]thiadiazol-5-yl]-4-[2-(4-methoxy-phenyl)-ethyl]-piperazine], the EC50 was determined as 0.8 nM. Against the preceding compound, the EC50 is about 460-fold lower.

`Clc1ccc(-c2nsc(N3CCN(CC4(c5ccc(Cl)cc5)CC4)CC3)n2)cc1` [Example 68, 1-[1-(4-Chloro-phenyl)-cyclopropylmethyl]-4-[3-(4-chloro-phenyl)-[1,2,4]thiadiazol-5-yl]-piperazine] registered a 50% effective concentration (EC50) of 899 nM.

Turning to `COc1ccccc1CCCN1CCN(c2nc(-c3ccc(Cl)cc3)ns2)CC1` [Example 39, 1-[3-(4-Chloro-phenyl)-[1,2,4]thiadiazol-5-yl]-4-[3-(2-methoxy-phenyl)-propyl]-piperazine], the midpoint of the response, the EC50, lay at 43.5 nM.

Regarding `COc1ccc(CCCN2CCN(c3nc(-c4ccc(Cl)cc4)ns3)CC2)cc1` [Example 52, 1-[3-(4-Chloro-phenyl)-[1,2,4]thiadiazol-5-yl]-4-[3-(4-methoxy-phenyl)-propyl]-piperazine], the EC50 is 327 nM.

`Fc1cccc(CCN2CCN(c3nc(-c4ccc(Cl)cc4)ns3)CC2)c1` [Example 21, 1-[3-(4-Chloro-phenyl)-[1,2,4]thiadiazol-5-yl]-4-[2-(3-fluoro-phenyl)-ethyl]-piperazine]: the EC50 is 9.5 nM.

On to `Cc1ncc(-c2nsc(N3CCN(CCc4ccccc4)CC3)n2)cn1` [Example 178, 3-(2-methylpyrimidin-5-yl)-5-(4-phenethylpiperazin-1-yl)-1,2,4-thiadiazole], for which it took 13.2 nM to reach a half-maximal effect (EC50).

Compound `Clc1ccc(-c2nsc(N3CCN(CCc4ccccc4Cl)CC3)n2)cc1` [Example 29, 1-[2-(2-Chloro-phenyl)-ethyl]-4-[3-(4-chloro-phenyl)-[1,2,4]thiadiazol-5-yl]-piperazine] yielded a half-maximal effective concentration (EC50) of 1.3 nM.
